Laboratory results as given in article PMC8584173, “The Cytotoxic Effect of Copper (II) Complexes with Halogenated 1,3-Disubstituted Arylthioureas on Cancer and Bacterial Cells” (International Journal of Molecular Sciences, 2021).
“And” between values parts separate entries of the source, which are not always exact repeats. Equal entries are not always repeated.

Legend:
[1] = test system: Peroxiredoxin-6 (PRDX6_HUMAN); assay: LC–MS proteome analysis, PRDX6; format: cell-based, Homo sapiens; details: IC50 concentration, % of control
Procedure: (§1) Enzymes involved in oxidoreductive potential were analyzed in the cell lysates obtained after treatment cells with selected conjugates for 24 h. Cells were washed with phosphate-buffered saline (PBS) and harvested, then centrifuged at 1000× g for 10 min. Then, lysis buffer (containing protease inhibitor, 1% RIPA Lysis and Extraction Buffer (ThermoFisher)) and cold PBS were added, and samples were sonicated three times in ice bath. Next, the cell lysates were centrifuged at 14,000× g at 4 °C for 15 min, and then supernatants were stored at […] before use. Protein concentration was measured by the Bradford method.
(§2) Normalized protein concentrations (5 µg) from cell lysate were precipitated by ice cold (–20 °C) acetonitrile (ACN, Merck, in ratio 1:4). Then, samples were centrifuged (–9 °C, 30 min., 18,000× g), the supernatant was discarded and ACN excess was evaporated using a vacuum centrifuge (5 min., room temp.). Protein pellet was dissolved in 40 mM ammonium bicarbonate. An amount of 500 mM dithiothreitol (DTT, with final concentration 20 mM) and 1 M iodoacetamide (IAA, with final concentration 40 mM) were used for reduction and alkylation processes. After 16 h of incubation in 37 °C with Trypsin Gold (Promega), digested protein samples were diluted with 0.1% formic acid (ThermoFisher) and centrifuged (+2 °C, 30 min, 18,000× g).
(§3) LC–MS analysis was carried out with the use of nanoUHPLC (nanoElute, Bruker) coupled by CaptiveSpray (Bruker) to ESI-Q-TOF mass spectrometer (Compact, Bruker). Two-column separation method was used, i.e., pre-column (300 µm × 5 mm, C18 PepMap 100, 5 µm, 100Å, Thermo Scientific) and Aurora separation column with CSI fitting (75 µm × 250 mm, C18 1.6 µm) in gradient 2% B to 35% B in 90 min with the 300 nL/min flow rate. Mobile phases (A) 0.1% formic acid in water and (B) 0.1% formic acid in ACN were used.
(§4) Sample ionizations were performed at a gas flow of 3.0 L/min, temperature of 150 °C and voltage of the capillary at 1600 V. The quadrupole energy was fixed to 5.0 eV and collision chamber energy 7.0 eV, with an ion transfer time of 90 µs. The ions were analyzed in the positive polarity mode in the range 150–2200 m/z, with the acquisition frequency of the 1 Hz spectrum, as well as with the autoMS/MS system.
(§5) The collected spectra were analyzed and calibrated using DataAnalysis software (Bruker) and then identified in ProteinScape (Bruker) by the MASCOT server. Protein identification was conducted using the online SwissProt and NCBIprot databases, and their references and biological significance were identified using Reactome.org, String.org and KEGG.

[2] = test system: Peroxiredoxin-5, mitochondrial (PRDX5_HUMAN); assay: LC–MS proteome analysis, PRDX5; format: cell-based, Homo sapiens; details: IC50 concentration, % of control
Procedure: as §1, §2, §3, §4, §5

[3] = test system: Glutathione reductase, mitochondrial (GSHR_HUMAN); assay: LC–MS proteome analysis, GSHR; format: cell-based, Homo sapiens; details: IC50 concentration, % of control
Procedure: as §1, §2, §3, §4, §5

[4] = test system: Glutathione S-transferase P (GSTP1_HUMAN); assay: LC–MS proteome analysis, GSTP1; format: cell-based, Homo sapiens; details: IC50 concentration, % of control
Procedure: as §1, §2, §3, §4, §5

[5] = test system: Glutathione S-transferase omega-1 (GSTO1_HUMAN); assay: LC–MS proteome analysis, GSTO1; format: cell-based, Homo sapiens; details: IC50 concentration, % of control
Procedure: as §1, §2, §3, §4, §5

[6] = test system: clinical methicillin-resistant strains of S. aureus (MRSA) and S. epidermidis (MRSE); assay: MIC, clinical strains; format: cell-based, Staphylococcus
Procedure: (§6) The antimicrobial activity of the compounds was tested on Gram-positive bacteria (Staphylococcus aureus NCTC 4163, Staphylococcus aureus ATCC 25923, Staphylococcus aureus ATCC 6538, Staphylococcus aureus ATCC 29213, Staphylococcus epidermidis ATCC 12228, Staphylococcus epidermidis ATCC 35984), Gram-negative rods (Escherichia coli ATCC 10538, Escherichia coli ATCC 25922, Pseudomonas aeruginosa ATCC 15442, Pseudomonas aeruginosa ATCC 27863) and yeasts (Candida albicans ATCC 10231, Candida albicans ATCC 90028, Candida parapsilosis ATCC 22019). Hospital methicillin-resistant strains of Staphylococcus aureus and Staphylococcus epidermidis were obtained from the collection of the Department of Pharmaceutical Microbiology, Medical University of Warsaw, Poland.
(§7) Antifungal activities were assessed using Mueller–Hinton agar + 2% glucose and 0.5 µg/mL methylene blue dye medium. Sterile filter paper discs (9 mm diameter, Whatman Number 3 chromatography paper) were dripped with tested compound solutions (in dimethylsulfoxide, DMSO) to load 400 μg of a given compound per disc. Dry discs were placed on the surface of appropriate agar medium. The results (diameter of the growth inhibition zone) were read after 18 h of incubation at 35 °C. Minimal inhibitory concentration (MIC) was tested by the twofold serial microdilution method (in 96-well microtiter plates) using Mueller–Hinton broth medium (Beckton Dickinson) for bacteria or RPMI-1640 medium for Candida species, according to CLSI guidelines. The stock solution of tested agent was prepared in DMSO and diluted in sterile water. […] The final inoculum of all studied microorganisms was 10^5 CFU/ mL^−1 (colony forming units per ml). Minimal inhibitory concentrations (the lowest concentration of a tested agent that prevents visible growth of a microorganism) were read after 18 h (bacteria) or 24 h (yeasts) of incubation at 35 °C.

[7] = test system: Peroxiredoxin-2 (PRDX2_HUMAN); assay: LC–MS proteome analysis, PRDX2; format: cell-based, Homo sapiens; details: IC50 concentration, % of control
Procedure: as §1, §2, §3, §4, §5

[8] = test system: Peroxiredoxin-1 (PRDX1_HUMAN); assay: LC–MS proteome analysis, PRDX1; format: cell-based, Homo sapiens; details: IC50 concentration, % of control
Procedure: as §1, §2, §3, §4, §5

[9] = test system: Superoxide dismutase [Cu-Zn] (SODC_HUMAN); assay: LC–MS proteome analysis, SODC; format: cell-based, Homo sapiens; details: for Protein Intensity, % (SODC): IC50 concentration, % of control
Procedure: as §1, §2, §3, §4, §5

standard staphylococci = assay: MIC, standard staphylococci; format: cell-based, Staphylococcus; details: standard staphylococci / S. aureus isolates
Procedure: as §6, §7

Candida species = assay: MIC, Candida species; format: cell-based; details: studied Candida species
Procedure: as §6, §7

[10] = test system: detoxifying and ROS-scavenging enzymes (GST, GR, SOD, PRDX); assay: LC–MS proteome analysis, all 12 tested enzymes (text summaries); format: cell-based, human; details: PC3, IC50 concentration, span over enzymes
Procedure: as §1, §2
LC–MS analysis was carried out with the use of nanoUHPLC (nanoElute, Bruker) coupled by CaptiveSpray (Bruker) to ESI-Q-TOF mass spectrometer (Compact, Bruker). […]
as §4
The collected spectra were analyzed and calibrated using DataAnalysis software (Bruker) and then identified in ProteinScape (Bruker) by the MASCOT server. […]

SMILES	Protein Intensity, % (PRDX6) ([1]; PC3, 24 h)	Protein Intensity, % (PRDX6) ([1]; SW480, 24 h)	Protein Intensity, % (PRDX6) ([1]; SW620, 24 h)	Protein Intensity, % (PRDX5) ([2]; PC3, 24 h)	Protein Intensity, % (PRDX5) ([2]; SW480, 24 h)	Protein Intensity, % (PRDX5) ([2]; SW620, 24 h)	Protein Intensity, % (GSHR) ([3]; PC3, 24 h)	Protein Intensity, % (GSHR) ([3]; SW480, 24 h)	Protein Intensity, % (GSHR) ([3]; SW620, 24 h)	Protein Intensity, % (GSTP1) ([4]; PC3, 24 h)	Protein Intensity, % (GSTP1) ([4]; SW480, 24 h)	Protein Intensity, % (GSTP1) ([4]; SW620, 24 h)	Protein Intensity, % (GSTO1) ([5]; PC3, 24 h)	Protein Intensity, % (GSTO1) ([5]; SW480, 24 h)	Protein Intensity, % (GSTO1) ([5]; SW620, 24 h)	MIC [6]	Protein Intensity, % (PRDX2) ([7]; PC3, 24 h)	Protein Intensity, % (PRDX2) ([7]; SW480, 24 h)	Protein Intensity, % (PRDX2) ([7]; SW620, 24 h)	MIC (standard staphylococci)	other results
O=[N+]([O-])c1cc([N+]2=C(Nc3ccccc3Br)[S][Cu-2]23[S]C(Nc2ccccc2Br)=[N+]3c2ccc(Cl)c([N+](=O)[O-])c2)ccc1Cl [Compound 1, Copper (II) complex with 1-(2-bromophenyl)-3-(4-chloro-3-nitrophenyl)thiourea]	66.6%	75.1%	83.2%	29% and 29.3%	77.3%	88.3%	71.1%	58.1%	69.1%	95.0%	84.8%	74.4%	65.0%	70.9%	85.5%	4 to 8 µg/mL	42.3%	95.5%	92.1%	–	Protein Intensity, % (PRDX1) ([8]; PC3, 24 h): 73.9%; Protein Intensity, % (PRDX1) ([8]; SW480, 24 h): 95.9%; Protein Intensity, % (PRDX1) ([8]; SW620, 24 h): 96.1%; Protein Intensity, % (SODC) ([9]; PC3, 24 h): 58.5%; Protein Intensity, % (SODC) ([9]; SW480, 24 h): 68.2%; Protein Intensity, % (SODC) ([9]; SW620, 24 h): 72.7%
O=[N+]([O-])c1cc([N+]2=C(Nc3cccc(Br)c3)[S][Cu-2]23[S]C(Nc2cccc(Br)c2)=[N+]3c2ccc(Cl)c([N+](=O)[O-])c2)ccc1Cl [Compound 2, Copper (II) complex with 1-(3-bromophenyl)-3-(4-chloro-3-nitrophenyl)thiourea]	–	–	–	–	–	–	–	–	–	–	–	–	–	–	–	4 to 8 µg/mL	–	–	–	16 to 32 µg/mL	growth inhibitory dose (Candida species): 64 µg/mL
O=[N+]([O-])c1cc([N+]2=C(Nc3ccc(F)c(Cl)c3)[S][Cu-2]23[S]C(Nc2ccc(F)c(Cl)c2)=[N+]3c2ccc(Cl)c([N+](=O)[O-])c2)ccc1Cl [Compound 4, Copper (II) complex with 1-(3-chloro-4-fluorophenyl)-3-(4-chloro-3-nitrophenyl)thiourea]	–	–	–	–	–	–	–	–	–	–	–	–	–	–	–	4 to 8 µg/mL	–	–	–	4 µg/mL	–
O=[N+]([O-])c1cc([N+]2=C(Nc3ccccc3F)[S][Cu-2]23[S]C(Nc2ccccc2F)=[N+]3c2ccc(Cl)c([N+](=O)[O-])c2)ccc1Cl [Compound 7, Copper (II) complex with 1-(2-fluorophenyl)-3-(4-chloro-3-nitrophenyl)thiourea]	35.0%	68.3%	67.5%	36.7%	91.0%	81.4%	61.2%	91.7%	67.3%	35.8%	80.9%	67.3%	68.6%	45.1%	52.5%	4 to 8 µg/mL	32.2%	69.4%	58.6%	16 to 32 µg/mL	reduction of intensity of the 12 tested enzymes [10]: 20.8-87.6%; Protein Intensity, % (PRDX1) ([8]; PC3, 24 h): 46.5%; Protein Intensity, % (PRDX1) ([8]; SW480, 24 h): 71.6%; Protein Intensity, % (PRDX1) ([8]; SW620, 24 h): 83.2%; Protein Intensity, % (SODC) ([9]; PC3, 24 h): 15.4%; Protein Intensity, % (SODC) ([9]; SW480, 24 h): 40.6%; reduction of SODC intensity ([9]; SW480, IC50 concentration): 59.4%; Protein Intensity, % (SODC) ([9]; SW620, 24 h): 44.7%
